“And” between values parts separate entries of the source, which are not always exact repeats. Equal values may be shown once.

What is called IC50 is the concentration that gives 50% inhibition.

The experiment has as its system S. Typhi PhoP-promoter GFP reporter, fluorescence, 4 h. The experiment is described as follows: PhoP regulon inhibitor project modified counter assay, GFP fluorescence readout, dose response (AID 1985).
On to `COc1ccc(Cc2nnc(N/N=C/c3ccc(O)cc3)[nH]c2=O)cc1OC`, for which the IC50 was 54.8 µM.

In the case of `CC1CCC(C(C)C)C(OC(=O)Cn2c(COc3ccccc3)[n+](C)c3ccccc32)C1` (stereo not given), the IC50 was 51.5 µM.

As to `O=C(Nc1c2ccccc2nc2ccccc12)C(Cl)(Cl)Cl`, the IC50 was 43.8 µM.

Consider `COc1ccc2nc(NC(=O)C3CC(=O)N(c4ccccc4)C3)sc2c1` (stereo not given), for which the IC50 was 107 µM.

On to `O=[N+]([O-])c1cc(O)c2ncccc2c1`, for which the IC50 is 12.1 µM.

Turning to `C/C(=N\NC(=O)c1cccc(Br)c1)c1ccccn1`, the IC50 was 54.4 µM.

`CC1(C)N=C(N)N=C(N)N1c1ccc(Oc2ccc(Cl)cc2)c(Cl)c1`: the IC50 was 43 µM.

`CSc1nc2cc(Oc3cccc(Cl)c3Cl)c(Cl)cc2[nH]1`: the IC50 is 57.8 µM.

As for `CCC(C)NC(=O)c1cn(CC)c2cc(N3CCN(C)CC3)c(F)cc2c1=O` (stereo not given), the IC50 is 38.4 µM.

Take `Cc1cc(NC(=O)c2ccc3[nH]c(C)c(C)c3c2)ccn1`: the IC50 was 144 µM.

In the case of `CCCCCCCCCCCCCCCC[N+](C)(C)C`, the IC50 is 19.3 µM.

Turning to `COc1c(N2CCN(C(=S)Nc3ccc(F)cc3)C(C)C2)c(F)cc2c(=O)c(C(=O)O)cn(C3CC3)c12` (stereo not given), the IC50 is 0.581 µM.

Take `O=C1CC(NC(=O)C(F)(F)F)=NN1c1ccccc1`: the IC50 was 143 µM.

Take `Oc1c(Br)cc(Br)cc1C=NCc1ccccc1`: the IC50 is 49.7 µM.

Consider `Cc1ccccc1Nc1cc(C)c2c(O)cccc2n1`, for which the IC50 is 25.5 µM.

With `O=C(N/N=C/c1ccc([N+](=O)[O-])o1)c1ccc(O)cc1`, the IC50 is 18.3 µM.

Consider `O=c1c2ccccc2nc(-c2cccc(Cl)c2)n1O`, for which the IC50 is 113 µM.

Turning to `CN(Cc1ccccc1O)CC1CCCN(CCc2ccc(Cl)cc2)C1` (stereo not given), the IC50 was 51.6 µM.

Regarding `CN(C)c1ccc(O)c2c1CC1CC3[C@@H](N(C)C)C(=O)C(C(N)=O)=C(O)[C@]3(O)C(=O)C1=C2O` (stereo not given in full), the IC50 is 5.1 µM.

Take `COc1cccc(/C=N\NC(=O)Cn2nnc3ccccc32)c1O`: the IC50 is 97.7 µM.

In the case of `O=[N+]([O-])/C=C/c1cc2ccccc2[nH]1`, the IC50 was 64.9 µM.

`O=C(CC1NCCc2ccccc21)Nc1ccc(Oc2ccccc2)cc1` (stereo not given): the IC50 is 79.9 µM.

Take `CCCCCCCCCCCCCCCC[N+](C)(C)CC`: the IC50 is 22.4 µM.

In the case of `CN(C)CCCNc1cc(C(C)(C)C)nc2c(-c3ccc(Cl)cc3)cnn12`, the IC50 was 34.8 µM.

Take `O=C1CSC(=S)N1c1cccc(O)c1`: the IC50 was 72.8 µM.

As for `CCOC(=O)c1c(-c2ccccc2)oc2ccc(OCC(O)CNCCN(C)C)cc12` (stereo not given), the IC50 is 80.2 µM.

For the compound `COc1ccc(CNCC(O)COc2ccc(C(C)(C)c3ccccc3)cc2)cc1` (stereo not given), the IC50 was 37.1 µM.

Consider `CCOC(=O)N1CCC(=NNc2ccnc3cc(Cl)ccc23)CC1`, for which the IC50 was 61.2 µM.

For the compound `CS(=O)(=O)c1ccc([C@@H](O)[C@@H](CF)NC(=O)C(Cl)Cl)cc1`, the IC50 was 4.74 µM.

`O=C(N/N=C/c1ccc(O)cc1O)C(=O)N/N=C/c1ccc(O)cc1O`: the 50% inhibitory concentration (IC50) is 108 µM.

As for `CN1CCN(c2c(F)cc3c(=O)c(C(=O)O)cn4c3c2SCC4)CC1`, the IC50 is 3.16 µM and 3.49 µM.

As to `Cc1ccc(OCC(=O)N/N=C/c2ccc([N+](=O)[O-])o2)cc1`, the IC50 was 28.6 µM.

Consider `CO/N=C(/C(=O)N[C@@H]1C(=O)N2C(C(=O)O)=CCS[C@H]12)c1cnc(N)s1`, for which the IC50 was 59.8 µM.

Regarding `COc1c(N2CCN[C@H](C)C2)c(F)cc2c(=O)c(C(=O)O)cn(C3CC3)c12`, the IC50 was below 0.23 µM.

With `Fc1ccc(Nc2nc(NCc3ccco3)c3ccccc3n2)cc1`, the IC50 was 15.1 µM.

In the case of `ON=C1/C(=N\O)CC2(C/C1=N/O)OCCO2`, the IC50 was 112 µM.

For the compound `C/C(=N/Nc1ccnc2cc(Cl)ccc12)c1ccc(N)cc1`, the IC50 is 55.3 µM.

`Clc1ccc(C(c2ccc(Cl)cc2)n2cc[n+](CC(OCc3ccc(Cl)cc3Cl)c3ccc(Cl)cc3Cl)c2)cc1` (stereo not given): the half-maximal inhibitory concentration (IC50) is 15 µM.

`Cc1cc(NS(=O)(=O)c2ccc(NC(=O)Nc3cccc(Cl)c3)cc2)no1`: the IC50 is 137 µM.

On to `COc1cc(/C=C2/C(=O)NN(c3ccc(F)cc3)C2=O)cc([N+](=O)[O-])c1O`, for which the IC50 is 34.7 µM.
